Source: ChEMBL document CHEMBL3608207, “Synthesis, characterization, evaluation and molecular dynamics studies of 5, 6-diphenyl-1,2,4-triazin-3(2H)-one derivatives bearing 5-substituted 1,3,4-oxadiazole as potential anti-inflammatory and analgesic agents” (Eur J Med Chem, 2015)

Key:
Rattus norvegicus [1] = experiment: Anti-inflammatory activity in rat Freund's adjuvant induced arthritis model of chronic inflammation assessed as inhibition of right hind paw swelling at 10 mg/kg, po dosed after 14 days from day of adjuvant injection until day 21 and measured on day 9; format: functional
Mus musculus [2] = experiment: Analgesic activity in Swiss albino mouse assessed as reduction in number of writhing episodes at 10 mg/kg, po measured 30 mins following acetic acid injection; format: functional; details: 0.5 h
Rattus norvegicus [3] = experiment: Renal toxicity in rat Freund's adjuvant induced arthritis model of chronic inflammation assessed as assessed as total protein level at 10 mg/kg, po dosed after 14 days from day of adjuvant injection until day 21 and measured on day 21 (reference value: 1.78 +/- 0.11 g/dL); format: organism-based; details: in vivo, 336 h
Rattus norvegicus [4] = experiment: Hepato-toxicity in rat Freund's adjuvant induced arthritis model of chronic inflammation assessed as assessed as histological changes at 10 mg/kg, po dosed after 14 days from day of adjuvant injection until day 21 and measured on day 21 by hematoxylin and eosin staining based microscopy; format: organism-based; details: in vivo, 336 h
Rattus norvegicus [5] = experiment: Hepato-toxicity in rat Freund's adjuvant induced arthritis model of chronic inflammation assessed as assessed as SGPT level at 10 mg/kg, po dosed after 14 days from day of adjuvant injection until day 21 and measured on day 21 (reference value: 34.23 +/- 2.5 U/mL); format: organism-based; details: in vivo, 336 h
Rattus norvegicus [6] = experiment: Renal toxicity in rat Freund's adjuvant induced arthritis model of chronic inflammation assessed as assessed as creatinine level at 10 mg/kg, po dosed after 14 days from day of adjuvant injection until day 21 and measured on day 21 (reference value: 0.62 +/- 0.049 mg/dL); format: organism-based; details: in vivo, 336 h
Rattus norvegicus [7] = experiment: Renal toxicity in rat Freund's adjuvant induced arthritis model of chronic inflammation assessed as assessed as histological changes at 10 mg/kg, po dosed after 14 days from day of adjuvant injection until day 21 and measured on day 21 by hematoxylin and eosin staining based microscopy; format: organism-based; details: in vivo, 336 h
Rattus norvegicus [8] = experiment: Anti-inflammatory activity in rat model of acute inflammation assessed as inhibition of carrageenan-induced paw oedema dosed at 10 mg/kg, po dosed 1 hr before carrageenan injection and measured 5 hrs after carrageenan injection; format: functional
Rattus norvegicus [9] = experiment: Hepato-toxicity in rat Freund's adjuvant induced arthritis model of chronic inflammation assessed as assessed as alkaline phosphatase level at 10 mg/kg, po dosed after 14 days from day of adjuvant injection until day 21 and measured on day 21 (reference value: 17.82 +/- 1.2 U); format: organism-based; details: in vivo, 336 h
Rattus norvegicus [10] = experiment: Anti-inflammatory activity in rat Freund's adjuvant induced arthritis model of chronic inflammation assessed as inhibition of right hind paw swelling at 10 mg/kg, po dosed after 14 days from day of adjuvant injection until day 21 and measured on day 12; format: functional
Rattus norvegicus [11] = experiment: Anti-inflammatory activity in rat model of acute inflammation assessed as inhibition of carrageenan-induced paw oedema dosed at 10 mg/kg, po dosed 1 hr before carrageenan injection and measured 4 hrs after carrageenan injection; format: functional
Rattus norvegicus [12] = experiment: Renal toxicity in rat Freund's adjuvant induced arthritis model of chronic inflammation assessed as assessed as total albumin level at 10 mg/kg, po dosed after 14 days from day of adjuvant injection until day 21 and measured on day 21 (reference value: 1.77 +/- 0.12 g/dL); format: organism-based; details: in vivo, 336 h
Rattus norvegicus [13] = experiment: Anti-inflammatory activity in rat model of acute inflammation assessed as inhibition of carrageenan-induced paw oedema dosed at 10 mg/kg, po dosed 1 hr before carrageenan injection and measured 2 hrs after carrageenan injection; format: functional
Rattus norvegicus [14] = experiment: Gastro-intestinal toxicity in rat Freund's adjuvant induced arthritis model of chronic inflammation assessed as assessed as histological changes at 10 mg/kg, po dosed after 14 days from day of adjuvant injection until day 21 and measured on day 21 by hematoxylin and eosin staining based microscopy; format: organism-based; details: in vivo, 336 h
Rattus norvegicus [15] = experiment: Anti-inflammatory activity in rat Freund's adjuvant induced arthritis model of chronic inflammation assessed as inhibition of right hind paw swelling at 10 mg/kg, po dosed after 14 days from day of adjuvant injection until day 21 and measured on day 21; format: functional
Rattus norvegicus [16] = experiment: Anti-inflammatory activity in rat Freund's adjuvant induced arthritis model of chronic inflammation assessed as inhibition of right hind paw swelling at 10 mg/kg, po dosed after 14 days from day of adjuvant injection until day 21 and measured on day 15; format: functional
Mus musculus [17] = experiment: Analgesic activity in Swiss albino mouse assessed as reduction in formalin-induced paw licking by measuring time spent on licking during phase-2 at 10 mg/kg, po dosed 1 hr before formalin challenge and measured 30 mins after formalin injection; format: functional
Mus musculus [18] = experiment: Analgesic activity in Swiss albino mouse assessed as reduction in formalin-induced paw licking by measuring time spent on licking during phase-1 at 10 mg/kg, po dosed 1 hr before formalin challenge and measured 30 mins after formalin injection; format: functional
Rattus norvegicus [19] = experiment: Anti-inflammatory activity in rat Freund's adjuvant induced arthritis model of chronic inflammation assessed as inhibition of right hind paw swelling at 10 mg/kg, po dosed after 14 days from day of adjuvant injection until day 21 and measured on day 6; format: functional
Rattus norvegicus [20] = experiment: Anti-inflammatory activity in rat model of acute inflammation assessed as inhibition of carrageenan-induced paw oedema dosed at 10 mg/kg, po dosed 1 hr before carrageenan injection and measured 1 hr after carrageenan injection; format: functional
Rattus norvegicus [21] = experiment: Anti-inflammatory activity in rat Freund's adjuvant induced arthritis model of chronic inflammation assessed as inhibition of right hind paw swelling at 10 mg/kg, po dosed after 14 days from day of adjuvant injection until day 21 and measured on day 3; format: functional
Rattus norvegicus [22] = experiment: Anti-inflammatory activity in rat model of acute inflammation assessed as inhibition of carrageenan-induced paw oedema dosed at 10 mg/kg, po dosed 1 hr before carrageenan injection and measured 3 hrs after carrageenan injection; format: functional
Rattus norvegicus [23] = experiment: Anti-inflammatory activity in rat model of acute inflammation assessed as inhibition of carrageenan-induced paw oedema dosed at 10 mg/kg, po dosed 1 hr before carrageenan injection and measured 6 hrs after carrageenan injection; format: functional
Rattus norvegicus [24] = experiment: Anti-inflammatory activity in rat Freund's adjuvant induced arthritis model of chronic inflammation assessed as inhibition of right hind paw swelling at 10 mg/kg, po dosed after 14 days from day of adjuvant injection until day 21 and measured on day 18; format: functional
Rattus norvegicus [25] = experiment: Anti-inflammatory activity in rat assessed as inhibition of arachidonic acid-induced paw edema at 10 mg/kg, po dosed 30 mins before arachidonic acid injection and measured 1 hr after arachidonic acid injection; format: functional
[26] = In-vitro antiinflammatory activity assessed as inhibition of denaturation of bovine serum albumin at 10 mg; format: functional
Rattus norvegicus [27] = experiment: Renal toxicity in rat Freund's adjuvant induced arthritis model of chronic inflammation assessed as assessed as blood urea nitrogen level at 10 mg/kg, po dosed after 14 days from day of adjuvant injection until day 21 and measured on day 21 (reference value: 23.48 +/- 1.8 mg/dL); format: organism-based; details: in vivo, 336 h
Rattus norvegicus [28] = experiment: Hepato-toxicity in rat Freund's adjuvant induced arthritis model of chronic inflammation assessed as assessed as SGOT level at 10 mg/kg, po dosed after 14 days from day of adjuvant injection until day 21 and measured on day 21 (reference value: 92.48 +/- 7.8 U/mL); format: organism-based; details: in vivo, 336 h
Rattus norvegicus [29] = experiment: Gastro-intestinal toxicity in rat Freund's adjuvant induced arthritis model of chronic inflammation assessed as ulcer index at 10 mg/kg, po dosed after 14 days from day of adjuvant injection until day 21 and measured on day 21; format: organism-based; details: in vivo, 336 h

`COc1ccc2c(c1)c(CC(=O)O)c(C)n2C(=O)c1ccc(Cl)cc1` [INDOMETHACIN] gave an inhibition in vivo at 10 mg/kg (Rattus norvegicus [1]) of 42.4%, an inhibition in vivo at 10 mg/kg (Mus musculus [2]) of 77.3% and an Activity (Rattus norvegicus [3]) of 2.24 g/dL. For the same compound, the Activity (Rattus norvegicus [4]) was “Toxic”, the Activity (Rattus norvegicus [5]) was 52.83 U/ml and the Activity (Rattus norvegicus [6]) was 1.84 mg/dL. For the same compound, the Activity (Rattus norvegicus [7]) was “Toxic”, the inhibition in vivo at 10 mg/kg (Rattus norvegicus [8]) was 62.6% and the Activity (Rattus norvegicus [9]) was 26.24 U. For the same compound, the inhibition in vivo at 10 mg/kg (Rattus norvegicus [10]) was 45.9%, the inhibition in vivo at 10 mg/kg (Rattus norvegicus [11]) was 60% and the Activity (Rattus norvegicus [12]) was 2.08 g/dL. The inhibition in vivo at 10 mg/kg (Rattus norvegicus [13]) was 59.5%, the Activity (Rattus norvegicus [14]) was “Toxic” and the inhibition in vivo at 10 mg/kg (Rattus norvegicus [15]) was 56.8%. For the same compound, the inhibition in vivo at 10 mg/kg (Rattus norvegicus [16]) was 51.3%, the inhibition in vivo at 10 mg/kg (Mus musculus [17]) was 82.2% and the inhibition in vivo at 10 mg/kg (Mus musculus [18]) was 15.6%. The inhibition in vivo at 10 mg/kg (Rattus norvegicus [19]) was 39.7%, the inhibition in vivo at 10 mg/kg (Rattus norvegicus [20]) was 57.6% and the inhibition in vivo at 10 mg/kg (Rattus norvegicus [21]) was 33.1%. For the same compound, the inhibition in vivo at 10 mg/kg (Rattus norvegicus [22]) was 60.5%, the inhibition in vivo at 10 mg/kg (Rattus norvegicus [23]) was 57.8% and the inhibition in vivo at 10 mg/kg (Rattus norvegicus [24]) was 54.2%. It also gave an inhibition in vivo at 10 mg/kg (Rattus norvegicus [25]) of 21.1%, an inhibition [26] of 84.9% and an Activity (Rattus norvegicus [27]) of 62.74 mg/dL. It also gave an Activity (Rattus norvegicus [28]) of 121.56 U/ml and a UI (Rattus norvegicus [29]) of 52.
